In patent publication US20260262643A1, “HERBICIDAL BENZOXAZINES” (FMC CORPORATION, priority 2022, published 2026):

Key:
blackgrass [1] = experiment: Test C preemergence; type: in vivo, Alopecurus myosuroides
Method in brief: (§1)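 Greenhouse herbicide screen, 10-day duration. Test chemicals in solvent/surfactant blend were sprayed onto soil at sowing (pre) or onto 2–10 cm seedlings at one to two leaves (post); injury scored visually against controls, 0 no effect to 100 complete control.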

corn [2] = experiment: Test C preemergence; type: in vivo, Zea mays
Method in brief: as §1

oat, wild [3] = experiment: Test C postemergence; type: in vivo, Avena fatua; conditions: 10 days, 0 to 100 scale (0 no effect, 100 complete control)
Method in brief: as §1

oat, wild [4] = experiment: Test C preemergence; type: in vivo, Avena fatua
Method in brief: as §1

soybean [5] = experiment: Test C preemergence; type: in vivo, Glycine max
Method in brief: as §1

green foxtail [6] = experiment: Test C postemergence; type: in vivo, Setaria viridis; conditions: 10 days, 0 to 100 scale (0 no effect, 100 complete control)
Method in brief: as §1

kochia [7] = experiment: Test C postemergence; type: in vivo, Bassia scoparia; conditions: 10 days, 0 to 100 scale (0 no effect, 100 complete control)
Method in brief: as §1

ryegrass, Italian [8] = experiment: Test C postemergence; type: in vivo, Lolium multiflorum; conditions: Postemergence, 125 g ai/ha; 0 to 100 scale (0 no effect, 100 complete control), 10 days
Method in brief: as §1

barnyardgrass [9] = experiment: Test C postemergence; type: in vivo, Echinochloa crusgalli; conditions: 10 days, 0 to 100 scale (0 no effect, 100 complete control)
Method in brief: as §1

green foxtail [10] = experiment: Test C preemergence; type: in vivo, Setaria viridis
Method in brief: as §1

sedge, umbrella = experiment: Test D flooded paddy test; type: in vivo, Cyperus difformis; conditions: 250 g ai/ha, applied to paddy water, visual rating after 13 to 14 days, scale 0 to 100 (0 no effect, 100 complete control)
Method in brief: (§2)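 Seedlings reached the 2-leaf stage, then pots were flooded to 3 cm over the soil surface. Compound was applied into the water, depth was maintained, and plants stayed in the greenhouse 13 to 14 days before visual scoring (0–100) relative to controls.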

barnyardgrass [11] = experiment: Test D flooded paddy test; type: in vivo, Echinochloa crus-galli; conditions: 250 g ai/ha, applied to paddy water, visual rating after 13 to 14 days, scale 0 to 100 (0 no effect, 100 complete control)
Method in brief: as §2

soybean [12] = experiment: Test C postemergence; type: in vivo, Glycine max; conditions: Postemergence, 125 g ai/ha; 0 to 100 scale (0 no effect, 100 complete control), 10 days
Method in brief: as §1

kochia [13] = experiment: Test C preemergence; type: in vivo, Bassia scoparia
Method in brief: as §1

wheat [14] = experiment: Test C postemergence; type: in vivo, Triticum aestivum; conditions: Postemergence, 125 g ai/ha; 0 to 100 scale (0 no effect, 100 complete control), 10 days
Method in brief: as §1

horseweed = experiment: Test C postemergence; type: in vivo, Erigeron canadensis; conditions: 10 days, 0 to 100 scale (0 no effect, 100 complete control)
Method in brief: as §1

ragweed [15] = experiment: Test C postemergence; type: in vivo, Ambrosia artemisiifolia; conditions: Postemergence, 125 g ai/ha; 0 to 100 scale (0 no effect, 100 complete control), 10 days
Method in brief: as §1

corn [16] = experiment: Test C postemergence; type: in vivo, Zea mays; conditions: 10 days, 0 to 100 scale (0 no effect, 100 complete control)
Method in brief: as §1

ryegrass, Italian [17] = experiment: Test C preemergence; type: in vivo, Lolium multiflorum
Method in brief: as §1

barnyardgrass [18] = experiment: Test C preemergence; type: in vivo, Echinochloa crusgalli
Method in brief: as §1

rice = experiment: Test D flooded paddy test; type: in vivo, Oryza sativa; conditions: 250 g ai/ha, applied to paddy water, visual rating after 13 to 14 days, scale 0 to 100 (0 no effect, 100 complete control)
Method in brief: as §2

wheat [19] = experiment: Test C preemergence; type: in vivo, Triticum aestivum
Method in brief: as §1

pigweed, palmer [20] = experiment: Test C preemergence; type: in vivo, Amaranthus palmeri
Method in brief: as §1

blackgrass [21] = experiment: Test C postemergence; type: in vivo, Alopecurus myosuroides; conditions: 10 days, 0 to 100 scale (0 no effect, 100 complete control)
Method in brief: as §1

ragweed [22] = experiment: Test C preemergence; type: in vivo, Ambrosia artemisiifolia
Method in brief: as §1

ducksalad = experiment: Test D flooded paddy test; type: in vivo, Heteranthera limosa; conditions: 250 g ai/ha, applied to paddy water, visual rating after 13 to 14 days, scale 0 to 100 (0 no effect, 100 complete control)
Method in brief: as §2

pigweed, palmer [23] = experiment: Test C postemergence; type: in vivo, Amaranthus palmeri; conditions: 10 days, 0 to 100 scale (0 no effect, 100 complete control)
Method in brief: as §1

[24] = 500 g ai/ha, preemergence, 0 to 100 scale (0 no effect, 100 complete control)
[25] = Preemergence, 125 g ai/ha, 0 to 100 scale, 0 no effect, 100 complete control

CCOC[C@H]1CN(C(=O)c2cc(-n3cnc(C4CCC4)n3)cc3c2OCO3)c2cccc(Cl)c2O1 [Compound 399]
Blackgrass plant response rating (blackgrass [1]; [24]): 0 | Plant response rating, Blackgrass (blackgrass [1]; [25]): 0 | Corn plant response rating (corn [2]; [24]): 0 | Plant response rating, Corn (corn [2]; [25]): 0 | Plant response rating, Oat, Wild (oat, wild [3]; 500 g ai/ha, postemergence): 0 | Plant response rating, Oat, Wild (oat, wild [3]; Postemergence, 125 g ai/ha): 0 | Oat, Wild plant response rating (oat, wild [4]; [24]): 30 | Plant response rating, Oat, Wild (oat, wild [4]; [25]): 0 | Soybean plant response rating (soybean [5]; [24]): 20 | Plant response rating, Soybean (soybean [5]; [25]): 0 | Plant response rating, Foxtail, Green (green foxtail [6]; 500 g ai/ha, postemergence): 40 | Plant response rating, Foxtail, Green (green foxtail [6]; Postemergence, 125 g ai/ha): 10 | Plant response rating, Kochia (kochia [7]; 500 g ai/ha, postemergence): 90 | Plant response rating, Kochia (kochia [7]; Postemergence, 125 g ai/ha): 90 | Plant response rating, Ryegrass, Italian (ryegrass, Italian [8]): 0 | Plant response rating, Barnyardgrass (barnyardgrass [9]; 500 g ai/ha, postemergence): 30 | Plant response rating, Barnyardgrass (barnyardgrass [9]; Postemergence, 125 g ai/ha): 20 | Foxtail, Green plant response rating (green foxtail [10]; [24]): 100 | Plant response rating, Foxtail, Green (green foxtail [10]; [25]): 20 | Plant response rating, Sedge, Umbrella (Flood) (sedge, umbrella): 0 | Plant response rating, Barnyardgrass (Flood) (barnyardgrass [11]): 0 | Plant response rating, Soybean (soybean [12]): 0 | Kochia plant response rating (kochia [13]; [24]): 70 | Plant response rating, Kochia (kochia [13]; [25]): 0 | Plant response rating, Wheat (wheat [14]): 20 | Plant response rating, Horseweed (horseweed; 500 g ai/ha, postemergence): 70 | Plant response rating, Horseweed (horseweed; Postemergence, 125 g ai/ha): 50 | Plant response rating, Ragweed (ragweed [15]): 70 | Plant response rating, Corn (corn [16]; 500 g ai/ha, postemergence): 10 | Plant response rating, Corn (corn [16]; Postemergence, 125 g ai/ha): 0 | Ryegrass, Italian plant response rating (ryegrass, Italian [17]; [24]): 70 | Plant response rating, Ryegrass, Italian (ryegrass, Italian [17]; [25]): 50 | Barnyardgrass plant response rating (barnyardgrass [18]; [24]): 70 | Plant response rating, Barnyardgrass (barnyardgrass [18]; [25]): 10 | Plant response rating, Rice (Flood) (rice): 0 | Wheat plant response rating (wheat [19]; [24]): 10 | Plant response rating, Wheat (wheat [19]; [25]): 0 | Pigweed, Palmer plant response rating (pigweed, palmer [20]; [24]): 100 | Plant response rating, Pigweed, Palmer (pigweed, palmer [20]; [25]): 100 | Plant response rating, Blackgrass (blackgrass [21]; 500 g ai/ha, postemergence): 20 | Plant response rating, Blackgrass (blackgrass [21]; Postemergence, 125 g ai/ha): 0 | Ragweed plant response rating (ragweed [22]; [24]): 80 | Plant response rating, Ragweed (ragweed [22]; [25]): 30 | Plant response rating, Ducksalad (Flood) (ducksalad): 0 | Plant response rating, Pigweed, Palmer (pigweed, palmer [23]; 500 g ai/ha, postemergence): 100 | Plant response rating, Pigweed, Palmer (pigweed, palmer [23]; Postemergence, 125 g ai/ha): 100
